Source: PubChem BioAssay AID2060616 (Molecular Pharmacology Branch, DTP, NCI, 2025)
Values belong to the compound of their own block, whether it stands above or below them.

Test system: 377384-186-R-J1-PDC complex spheroid viability
Test: Anticancer human tumor 377384-186-R-J1-PDC patient-derived pancreatic carcinoma cell line growth inhibition [CLK]
Conditions: for IC50: curve of first compound; for viability, T/C: stronger effect = lower value
Procedure, shortened: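 Patient-derived tumor cells grown as complex spheroids with HUVEC endothelial cells and mesenchymal stem cells, treated with drug combinations. Concentrations descend in half-log steps from near clinical Cmax, or from 10 microM if Cmax unknown.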

[1] = second compound 0.0316 µM, first compound 0.0316 µM
[2] = second compound 0.0316 µM, first compound 0.1 µM
[3] = second compound 0.0316 µM, first compound 0.316 µM
[4] = second compound 0.0316 µM, first compound 1 µM
[5] = second compound 0.0316 µM, first compound 3.16 µM
[6] = second compound 0.0316 µM, first compound 10 µM
[7] = second compound 0.1 µM, first compound 0.0316 µM
[8] = second compound 0.1 µM, first compound 0.1 µM
[9] = second compound 0.1 µM, first compound 0.316 µM
[10] = second compound 0.1 µM, first compound 1 µM
[11] = second compound 0.1 µM, first compound 3.16 µM
[12] = second compound 0.1 µM, first compound 10 µM
[13] = second compound 0.316 µM, first compound 0.0316 µM
[14] = second compound 0.316 µM, first compound 0.1 µM
[15] = second compound 0.316 µM, first compound 0.316 µM
[16] = second compound 0.316 µM, first compound 1 µM
[17] = second compound 0.316 µM, first compound 3.16 µM
[18] = second compound 0.316 µM, first compound 10 µM
[19] = second compound 1 µM, first compound 0.0316 µM
[20] = second compound 1 µM, first compound 0.1 µM
[21] = second compound 1 µM, first compound 0.316 µM
[22] = second compound 1 µM, first compound 1 µM
[23] = second compound 1 µM, first compound 3.16 µM
[24] = second compound 1 µM, first compound 10 µM
[25] = second compound 3.16 µM, first compound 0.0316 µM
[26] = second compound 3.16 µM, first compound 0.1 µM
[27] = second compound 3.16 µM, first compound 0.316 µM
[28] = second compound 3.16 µM, first compound 1 µM
[29] = second compound 3.16 µM, first compound 3.16 µM
[30] = second compound 3.16 µM, first compound 10 µM
[31] = second compound 10 µM, first compound 0.0316 µM
[32] = second compound 10 µM, first compound 0.1 µM
[33] = second compound 10 µM, first compound 0.316 µM
[34] = second compound 10 µM, first compound 1 µM
[35] = second compound 10 µM, first compound 3.16 µM
[36] = second compound 10 µM, first compound 10 µM
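Also: spheroids exposed to agents for 7 days before reading.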
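For viability, T/C in this document: luminescence signal used as a stand-in for viable cells.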

Structure (SMILES): COc1cccc2c1C(=O)c1c(O)c3c(c(O)c1C2=O)CC(O)(C(=O)CO)CC3OC1CC(N)C(O)C(C)O1 (stereo unspecified) + CN1CCN(c2cc(C(=O)Nc3cc4cc(-c5cnn(C)c5)ccc4cn3)ccn2)CC1
IC50 (second compound 0.0316 µM): < 31.6 nM
IC50 (second compound 0.1 µM): < 31.6 nM
IC50 (second compound 0.316 µM): < 31.6 nM
IC50 (second compound 1 µM): < 31.6 nM
IC50 (second compound 3.16 µM): < 31.6 nM
IC50 (second compound 10 µM): < 31.6 nM
viability, T/C [1]: 16.3%
viability, T/C [2]: 7.2%
viability, T/C [3]: 1.82%
viability, T/C [4]: 0.52%
viability, T/C [5]: 3.08%
viability, T/C [6]: 7.38%
viability, T/C [7]: 17.7%
viability, T/C [8]: 5.86%
viability, T/C [9]: 1.2%
viability, T/C [10]: 0.36%
viability, T/C [11]: 4.01%
viability, T/C [12]: 8.5%
viability, T/C [13]: 15.2%
viability, T/C [14]: 4.88%
viability, T/C [15]: 0.54%
viability, T/C [16]: 0.77%
viability, T/C [17]: 3.95%
viability, T/C [18]: 9.46%
viability, T/C [19]: 0.41%
viability, T/C [20]: 0.53%
viability, T/C [21]: 0.23%
viability, T/C [22]: 1.24%
viability, T/C [23]: 3.93%
viability, T/C [24]: 8.63%
viability, T/C [25]: 0.22%
viability, T/C [26]: 0.41%
viability, T/C [27]: 1.02%
viability, T/C [28]: 1.45%
viability, T/C [29]: 6.27%
viability, T/C [30]: 9.38%
viability, T/C [31]: 0.49%
viability, T/C [32]: 0.33%
viability, T/C [33]: 1.94%
viability, T/C [34]: 0.34%
viability, T/C [35]: 0.53%
viability, T/C [36]: 0.18%

IC50 (second compound 0.0316 µM): > 10000 nM
IC50 (second compound 0.1 µM): 1620 nM
IC50 (second compound 0.316 µM): < 31.6 nM
IC50 (second compound 1 µM): < 31.6 nM
IC50 (second compound 3.16 µM): < 31.6 nM
IC50 (second compound 10 µM): < 31.6 nM
Structure (SMILES): CCCS(=O)(=O)Nc1ccc(F)c(C(=O)c2c[nH]c3ncc(-c4ccc(Cl)cc4)cc23)c1F + CNC(=O)c1ccc(Nc2nc(OC3CCCC3)c3c(-c4ccc5nc(C)oc5c4)c[nH]c3n2)c(OC)c1
viability, T/C [1]: 103%
viability, T/C [2]: 118%
viability, T/C [3]: 115%
viability, T/C [4]: 123%
viability, T/C [5]: 107%
viability, T/C [6]: 52.5%
viability, T/C [7]: 65.1%
viability, T/C [8]: 70%
viability, T/C [9]: 49.1%
viability, T/C [10]: 59.7%
viability, T/C [11]: 44%
viability, T/C [12]: 37.2%
viability, T/C [13]: 19.9%
viability, T/C [14]: 22.5%
viability, T/C [15]: 23.6%
viability, T/C [16]: 22.6%
viability, T/C [17]: 32.6%
viability, T/C [18]: 24.3%
viability, T/C [19]: 18.9%
viability, T/C [20]: 20.6%
viability, T/C [21]: 23.6%
viability, T/C [22]: 27%
viability, T/C [23]: 30.7%
viability, T/C [24]: 24.8%
viability, T/C [25]: 19.8%
viability, T/C [26]: 25.4%
viability, T/C [27]: 23.9%
viability, T/C [28]: 28%
viability, T/C [29]: 29%
viability, T/C [30]: 23.4%
viability, T/C [31]: 21.5%
viability, T/C [32]: 23.3%
viability, T/C [33]: 26.8%
viability, T/C [34]: 29.1%
viability, T/C [35]: 31.1%
viability, T/C [36]: 29%

IC50 (second compound 0.0316 µM): 5940 nM
IC50 (second compound 0.1 µM): 4470 nM
IC50 (second compound 0.316 µM): < 31.6 nM
IC50 (second compound 1 µM): < 31.6 nM
IC50 (second compound 3.16 µM): < 31.6 nM
IC50 (second compound 10 µM): < 31.6 nM
Structure (SMILES): COC1C=CCC(C)C(C)S(=O)(=O)NC(=O)c2ccc3c(c2)N(CC2CCC21)CC1(CCCc2cc(Cl)ccc21)CO3 (stereo unspecified) + CNC(=O)c1ccc(Nc2nc(OC3CCCC3)c3c(-c4ccc5nc(C)oc5c4)c[nH]c3n2)c(OC)c1
viability, T/C [1]: 100%
viability, T/C [2]: 99.6%
viability, T/C [3]: 97.8%
viability, T/C [4]: 92.9%
viability, T/C [5]: 84.2%
viability, T/C [6]: 22.4%
viability, T/C [7]: 57.9%
viability, T/C [8]: 61.9%
viability, T/C [9]: 56%
viability, T/C [10]: 68.4%
viability, T/C [11]: 60%
viability, T/C [12]: 26.2%
viability, T/C [13]: 19.9%
viability, T/C [14]: 17.2%
viability, T/C [15]: 18.3%
viability, T/C [16]: 16.8%
viability, T/C [17]: 23%
viability, T/C [18]: 19.2%
viability, T/C [19]: 19%
viability, T/C [20]: 17.6%
viability, T/C [21]: 14.9%
viability, T/C [22]: 12.4%
viability, T/C [23]: 17.8%
viability, T/C [24]: 21.9%
viability, T/C [25]: 18.9%
viability, T/C [26]: 18.9%
viability, T/C [27]: 13.4%
viability, T/C [28]: 13.9%
viability, T/C [29]: 14.6%
viability, T/C [30]: 20.8%
viability, T/C [31]: 18.5%
viability, T/C [32]: 16.6%
viability, T/C [33]: 15.1%
viability, T/C [34]: 12.4%
viability, T/C [35]: 12.3%
viability, T/C [36]: 18%
